These results are taken from patent US20060111335A1, “Photoactivated anti-viral and anti-cancer agent” (priority 2002, published 2006).

The nature of data set [1]: Reversed phase HPLC elution on C8 column as measure of hydrophobicity. In kind it is physicochemical. How it is done: Reversed phase high performance liquid chromatography (RP-HPLC) was carried out on C8 columns. Compounds were tested using 20%, 30% and 45% acetonitrile in 100 mM ammonium acetate at pH 5.4 for elution on a C8 column, with the intention of achieving an elution time of about 15 minutes. It was expected that the more hydrophobic a compound, the higher the acetonitrile content one would need for the eluent.

For a further data set, the system named is φX-174 plasmid DNA. Kind of data set: Photonicking of φX-174 plasmid DNA, gel electrophoresis. In kind it is biochemical. Conditions: for photonicking of φX-174 plasmid DNA: Example IX, dark and upon exposure to light. How it is done:
Photolysis with φX-174 Plasmid DNA. Metal complex solutions (with or without quenchers) were saturated with oxygen or argon prior to irradiation. The solutions were further degassed after being mixed with the plasmid. The final solution concentrations were: DPPZPHEN ([…]), φX-174 plasmid DNA (205 μM in base pairs), superoxide dismutase (25 μg/mL), 2-propanol (0.5 M), mannitol (6.25 mM), histidine (8 mM).
Experiments were conducted as described in Example X to evaluate the amount photonicking that occurred in the dark and upon exposure to light for 37TMBP, 56TMBP, OCTBP, BISNMe2, TMOBP, TIOBP, TPBP, BISTAP and BISDPPZ.

The next data set relates to cell membrane. Kind of data set: Cell uptake / passage through the cell membrane. How it is done: OCTBP uptake by KB cells. 11 mg of OCTBP was dissolved in 40 mL of PBS buffer. The solution was vortex stirred for 5 minutes to completely dissolve the solid. The solution was sterile filtered through a 0.2μ nylon syringe filter. The concentration of the solution was determined by measuring the UV absorption at 353 nm (ε353nm=1565 M^−1cm^−1).
Once the cells were 75% confluent media was decanted from the flasks and 8 mL of drug solutions were added to three flasks and 8 mL of PBS buffer solution was added to the control flask. The flasks were incubated at 37° C. for 15, 30 and 45 minutes. Control flask was incubated for 45 minutes. When the flasks were removed, they were washed with 6×10 mL of PBS buffer solution. All the liquid was carefully decanted from the flasks. 1 mL of lysing buffer (1% triton X-100) was added to each of the four flasks. The walls of the flasks were rinsed using disposable pipettes. Once all the contents of the flasks were placed into a 1.5 mL disposable centrifuge tubes (each flask yielded ˜1.2 mL), the tubes were centrifuged at 6000 rpm and at 4° C. for 30 minutes on the Fisher Model 59V high-speed centrifuge. BCA Assay was done to establish the amount of cells in each flask.
Rh content of each flask was determined using an inductively coupled plasma (ICP) instrument (AtomScan16, Thermo Elemental, Franklin, Mass.). From each centrifuge tube 1 mL was pipetted and 370 μL of concentrated HCl was added to form a 10% solution. The samples were heated in a hot water bath at 70° C. for 30 minutes. The samples were centrifuged again and the supernatant liquid was diluted to 8 mL by adding nano-pure water. The samples were analyzed for Rh content by ICP.

The next data set relates to cells. Description: Phototoxicity, summary statement of Example XII. It counts as cell-based.
For the next data set, the system named is Calf thymus DNA. Kind of data set: Dark association with DNA, UV-Visible titration (Example XI). It counts as binding. Conditions: 50 mM pH 7 I=0.15 sodium phosphate buffer (physiological condition).
The nature of data set [2]: Photodestruction (photoaquation) with visible light >500 nm, HPLC analysis. Conditions: 0.1 mM aqueous, 8 hours under argon. It counts as physicochemical. As for the experimental part:
Aqueous solutions (3 mL, 0.1 mM) of the Rh complexes were irradiated for 8 hours under argon using a 450 W Hanovia medium pressure mercury lamp filtered through a uranium yellow glass (cut-off<330 nm) and a 1.5 cm 0.5% (w/v) aqueous solution of K2Cr2O7 (0% transmittance≦500 nm). Photodestruction of the metal complexes was followed by HPLC analysis.

Data set [3] in a line: Dark thermal aquation and thermal base hydrolysis. It counts as physicochemical. Conditions: 80° C. with 10% NaOH. From the text:
A dissociation/addition mechanism is generally accepted as responsible for the substitution chemistry associated with a hexacoordinated Rh(III) ligand field triplet (Weiland et al., Inorg. Chem., 25:4893 (1986)). The dissociation step is due to the promotion of an electron from the t2g orbital to the eg orbital, which leads to significant weakening of the metal ligand bonds. (Hipps et al., Inorg. Chem., 13:1544 (1974)).

A further data set has as its system DNA. The arrangement: association with DNA in the dark: dose or concentration left out as unconfirmed. Conditions: cited from earlier work.
For the next data set, the system named is KB cells. Conditions: delivered to cells by liposome; cited from earlier work.
The subject of a further data set is nucleic acid. Conditions: irradiated with light; cited from earlier work.
For the next data set, the system named is CT DNA. Description: Dark interaction of DPPZPHEN with CT DNA, UV-Vis absorption titration at 380 nm. In kind it is binding, calf. As for the experimental part: General. The quantity of DNA was determined by the Burton assay (Burton, Biochem. J., 62:315-322 (1956)), and its rhodium content was quantitated using flame atomic absorption spectroscopy (AA). The equilibrium constant for interaction between DPPZPHEN and CT-DNA in the dark was calculated from UV-Vis absorption titration measurements at 380 nm (Wolfe et al., Biochem., 26:6392-6396 (1987); Schemel et al., Biopolymers, 10:465-480 (1971)). Cell viability was determined using the MTT assay (Denizot et al., J. Immunol. Methods, 89:271-277 (1986)). SINV was purified on sucrose gradients as previously described (Owen et al., J. Virol., 70:2757-2763 (1996)). The titer was generally 7-8 log10 pfu/mL at the beginning of each experiment.
Interaction of DPPZPHEN with DNA. […] An intrinsic binding constant of […] 3.4×10^5 M^−1 was calculated using the molar extinction coefficient at the λmax (380 nm) at each titration point.

In another data set the test system is Sindbis virus. Conditions: cited from earlier work.
In data set [4] the test system is HeLa (human cervical carcinoma) cells. Conditions: cited from earlier work.
The next data set concerns bacteriophage φ6. Conditions: cited from earlier work.
Data set [5] relates to KB (human nasopharingeal carcinoma) cells. Conditions: cited from earlier work.
Data set [6] has as its system naked infectious DNA from phages S13 and G4. Conditions: cited from earlier work.
Where [7] appears, read: 45% acetonitrile in 100 mM ammonium acetate pH 5.4.

Molecules are shown by their SMILES.

Method for Calf thymus DNA: Preparation of DNA solution. Calf thymus DNA (Sigma) was dissolved in 50 mM, pH 7, I=0.15 sodium phosphate buffer (Physiological condition) and sonicated. The purity of the DNA was checked by monitoring the absorption spectrum and the ratio of the absorbance at 260 to 280 nm. The ratio were within the acceptable purity margin (1.8±0.1). The concentration of the Calf thymus DNA per phosphate was determined spectrophotometrically: ε253=6600 for calf thymus DNA^1. The concentration was 2.13 E-3 M.
The resulting solution was diluted 4 times with phosphate buffer. […] 0, 50 μL, 150 μL, 200 μL, 300 μL, 350 μL and 500 μL of DNA solutions were added, mixed well with a small disposable needle, and spectra were recorded again. The concentration of the species, the apparent absorbance at 337 nm, and the apparent extinction coefficients at 337 nm were determined from the absorptions spectra and tabulated in Table 1.
The apparent binding constant, Kapp was determined from the plot of [DNA]/Δεapp versus [DNA], where Δεapp=εf−εapp and Δε=εf−εb^2, where εb and εf correspond to the extinction coefficient of the DNA-bound form of the OCTBP derivatives and the extinction coefficient of the DNA-unbound OCTBP derivatives, respectively. […] Cb=(εfCtotal−Aobserved)/Δε The concentration of the DNA-unbound OCTBP derivatives (Cf) can be determined by Cf=Ctotal−Cb […]

For `CN(C)C1=c2ccc3c4c2[N](C=C1)[Rh+]1([Cl])([Cl])([N]4C=CC=3N(C)C)[N]2C=CC(N(C)C)=c3ccc4c(c32)[N]1C=CC=4N(C)C.[Cl-]` [BISNMe2, cis-dichlorobis(N,N-dimethylamino)-1,10-phenanthroline} rhodium(III) chloride], the elution time result in [1] (setting [7]) is on record as “about 15 minutes”. Moreover, in the data set with φX-174 plasmid DNA, the “photonicking of φX-174 plasmid DNA” value was “Only TPBP, BISTAP, BISDPPZ and BISDPPHEN complexes were found to photonick”. Besides, in the data set on cell membrane, the “ability to pass through the cell membrane” value is listed as “able to pass through the cell membrane”. For the same molecule, in the data set on cells, the phototoxicity result is listed as “are phototoxic”. Also, the “apparent (intrinsic) binding constant Kapp” value with Calf thymus DNA was 2.0 E4 M.
On to `[Cl-].[Cl][Rh+]12([Cl])([N]3C=CC=c4c3c3c(c5nccnc45)=CC=C[N]31)[N]1C=CC=c3c1c1c(c4nccnc34)=CC=C[N]12`, for which the elution time in [1] (setting [7]) fell in the range of 8 to 10 min.
`[Cl-].[Cl][Rh+]12([Cl])([N]3C=CC(c4ccccc4)=c4ccc5c(c43)[N]1C=CC=5c1ccccc1)[N]1C=CC(c3ccccc3)=c3ccc4c(c31)[N]2C=CC=4c1ccccc1` [TPBP, cis-dichlorobis(4,7-diphenyl-1,10-phenanthroline) rhodium(III) chloride]: in data set [1] (setting [7]), the elution time entry was “around 30 minutes”. Further, the “photonicking of φX-174 plasmid DNA” value in the data set on φX-174 plasmid DNA is on record as “found to photonick”.
For `CC(C)OC1=c2ccc3c4c2[N](C=C1)[Rh+]1([Cl])([Cl])([N]4C=CC=3OC(C)C)[N]2C=CC(OC(C)C)=c3ccc4c(c32)[N]1C=CC=4OC(C)C.[Cl-]` [TIOBP, cis-dichlorobis(3,7-diisopropoxy-1,10 phenanthroline) rhodium(III) chloride], the elution time entry in [1] (setting [7]) is recorded as “about 15 minutes”. In the data set on φX-174 plasmid DNA, the “photonicking of φX-174 plasmid DNA” value is “Only TPBP, BISTAP, BISDPPZ and BISDPPHEN complexes were found to photonick”.
On to `Cc1c(C)c2c3c4c1=CC=C[N]4[Rh+]1([Cl])([Cl])([N]3C=CC=2)[N]2C=CC=c3c(C)c(C)c4c(c32)[N]1C=CC=4.[Cl-]` [56TMBP, cis-dichlorobis(5,6-dimethyl-1,10-phenanthroline) rhodium(III) chloride], for which the “photonicking of φX-174 plasmid DNA” value in the data set on φX-174 plasmid DNA is “Only TPBP, BISTAP, BISDPPZ and BISDPPHEN complexes were found to photonick”.
In the case of `[Cl-].[Cl][Rh+]12([Cl])([N]3C=CC=c4c3c3c(c5nc6ccccc6nc45)=CC=C[N]31)[N]1C=CC=c3c1c1c(c4nc5ccccc5nc34)=CC=C[N]12` [BISDPPZ, cis-dichlorobis{dipyrido(3,2-a: 2′,3′-c)phenazine)rhodium (III) chloride], in data set [1] (setting [7]), the elution time entry is on record as “around 30 minutes”. Besides, in the data set on φX-174 plasmid DNA, the “photonicking of φX-174 plasmid DNA” value was “found to photonick”.
Turning to `COC1=c2ccc3c4c2[N](C=C1)[Rh+]1([Cl])([Cl])([N]4C=CC=3OC)[N]2C=CC(OC)=c3ccc4c(c32)[N]1C=CC=4OC.[Cl-]` [TMOBP, cis-dichlorobis(4,7-dimethoxy-1,10-phenanthroline) rhodium(III) chloride], in data set [1] (setting [7]), the elution time result is reported as “about 15 minutes”. In the data set on φX-174 plasmid DNA, the “photonicking of φX-174 plasmid DNA” value was “Only TPBP, BISTAP, BISDPPZ and BISDPPHEN complexes were found to photonick”.
Turning to `CC1=c2ccc3c4c2[N](C=C1)[Rh+]1([Cl])([Cl])([N]4C=CC=3C)[N]2C=CC(C)=c3ccc4c(c32)[N]1C=CC=4C.[Cl-]` [37TMBP], the photodestruction in data set [2] was 6.1 % loss. In addition, in the data set with φX-174 plasmid DNA, the “photonicking of φX-174 plasmid DNA” value is “Only TPBP, BISTAP, BISDPPZ and BISDPPHEN complexes were found to photonick”. For the same molecule, in data set [3], the “thermal hydrolysis, rank order” value is given as “OCTBP≅37TMBP>BISPHEN”.
As to `[Cl-].[Cl-].[Cl-].[Rh+3].c1cnc2c(c1)ccc1cccnc12.c1cnc2c(c1)ccc1cccnc12` [BISPHEN, cis-dichlorobis(1,10-phenanathroline) rhodium(III) chloride], the photodestruction entry in [2] is reported as “virtually unaffected”. Further, the “dark association with DNA” value with DNA (dark) is reported as “minimal dark association”. The “association with DNA in the dark” value in the data set with DNA (very low ionic strength) is listed as “only a minimal association”. Moreover, the “phototoxicity against KB cells” value in the data set with KB cells was “marginal levels of phototoxicity”. Moreover, in [1] (20% acetonitrile in 100 mM ammonium acetate pH 5.4), the elution time result was “about 15 minutes”. Besides, the “covalent binding to nucleic acid upon irradiation” value in the data set on nucleic acid is on record as “covalently binds to nucleic acid”. In addition, the “interaction with CT DNA in the dark” value with CT DNA is recorded as “negligible interaction”. In addition, the “phototoxicity / virucidal activity against Sindbis virus” value in the data set on Sindbis virus is listed as “minimal phototoxicity”. For the same molecule, the uptake by cells result in data set [4] and in [5] was “not taken up” throughout. Besides, in the data set on φX-174 plasmid DNA (311 nm irradiation, Example VIII), the “frank nicks / nicking of φX-174 supercoiled plasmid DNA upon irradiation” value was “does not generate such frank nicks”. In addition, in the data set with cell membrane, the “ability to pass through the cell membrane” value is “Neither of these compounds is able to pass through a cell membrane”. Moreover, the “activity against bacteriophage φ6” value in the data set on bacteriophage φ6 is “did not exhibit any activity”. Also, in data set [6], the “phototoxicity to single stranded and double stranded naked infectious DNA” value is “phototoxic”. Also, the “thermal hydrolysis, rank order” value in data set [3] is on record as “OCTBP≅37TMBP>BISPHEN”.
